Measurements published in US20230391752A1, “PYRROLIDINE-3-CARBOXAMIDE DERIVATIVES AND RELATED USES” (Chulalongkorn University, priority 2020, published 2023).

Legend:
Format in all cases: cell-based
[1] = biological target: T1, HBV capsid (Hepatitis B virus genotype D subtype ayw, UniProt P03146); assay: Mechanistic study in stably HBV expressed HepG2.2.15 cells (capsid, encapsidated DNA/RNA, core protein blots); settings: HepG2.2.15, 6 days
T1 construct: expressed in transfected cells; host or cells: HepG2.2.15
Experimental: The stably HBV expressed HepG2.2.15 cells were treated with test compounds, at various concentrations in culture medium, at 37° C. for three days. After that the medium was removed and fresh medium containing the compound was added to the cells for another 3 days. After 6 days of treatment, cellular lysates from the treated cells were assessed by non-denatured agarose gel electrophoresis. HBV capsid was detected by western blot with monoclonal anti-HBV core. Encapsidated HBV DNA and RNA were detected by southern blot and northern blot. Intracellular HBV core protein was assessed by western Blot with a monoclonal mouse anti-HBV core. β-actin protein assessed by western blot was used as an internal control.

[2] = biological target: T2, HBV construct U95551 (wild-type) (Hepatitis B virus genotype D subtype ayw, UniProt P03146); settings: relative to the wild type construct
T2 construct: expressed in transfected cells; host or cells: HepG2

[3] = biological target: HBV core protein variant F23Y (Hepatitis B virus genotype D subtype ayw, UniProt P03146, F23Y); assay: Anti-HBV activity in core protein variants: F23Y; settings: relative to the wild type construct
[4] = biological target: HBV core protein variant D29G (Hepatitis B virus genotype D subtype ayw, UniProt P03146, D29G); assay: Anti-HBV activity in core protein variants: D29G; settings: relative to the wild type construct
[5] = biological target: HBV core protein variant T33N (Hepatitis B virus genotype D subtype ayw, UniProt P03146, T33N); assay: Anti-HBV activity in core protein variants: T33N; settings: relative to the wild type construct
[6] = biological target: HBV core protein variant I105T (Hepatitis B virus genotype D subtype ayw, UniProt P03146, I105T); assay: Anti-HBV activity in core protein variants: I105T; settings: relative to the wild type construct
[7] = biological target: HBV core protein variant T109I (Hepatitis B virus genotype D subtype ayw, UniProt P03146, T109I); assay: Anti-HBV activity in core protein variants: T109I; settings: relative to the wild type construct
[8] = biological target: HBV core protein variant T109M (Hepatitis B virus genotype D subtype ayw, UniProt P03146, T109M); assay: Anti-HBV activity in core protein variants: T109M; settings: relative to the wild type construct
[9] = biological target: HBV core protein variant Y118F (Hepatitis B virus genotype D subtype ayw, UniProt P03146, Y118F); assay: Anti-HBV activity in core protein variants: Y118F; settings: relative to the wild type construct

CCOC(=O)C1=C(CN2CCOCC2)NC(c2nccs2)=NC1c1ccc(F)cc1Br (stereo not shown) [GLS4, reference compound]
HBV capsid (formation of DNA- and RNA-devoid capsid) ([1]; various concentrations): induced formation of DNA- and RNA-devoid capsid
Intracellular HBV core protein level ([1]; western blot): reduced intracellular HBV core protein level in the concentration-dependent manner
Fold change in EC50, U95551 (wild-type) [2]: B (B=1-5)
Fold change in EC50, F23Y [3]: C (C=5-15)
Fold change in EC50, D29G [4]: B (B=1-5)
Fold change in EC50, T33N [5]: D (D>15)
Fold change in EC50, I105T [6]: B (B=1-5)
Fold change in EC50, T109I [7]: C (C=5-15)
Fold change in EC50, T109M [8]: B (B=1-5)
Fold change in EC50, Y118F [9]: B (B=1-5)
